{
  "source": "patent US11795145B2",
  "about": "“Methane-production inhibitor composition and method for inhibiting methane production” (KUMIAI CHEMICAL INDUSTRY CO., LTD., priority 2020, dated 2023)",
  "key": {"dairy cattle": {"tested_on": "dairy cattle", "conditions": "feed treated with from 40 to 80 mg/kg; cited from earlier work"}, "[1]": {"tested_on": "paddy field soil microorganisms", "assay": "Test Example 3: comparative test of methane-production inhibition with existing inhibitor BES in flooded paddy field soil (headspace GC)", "assay_type": "cell-based", "conditions": "0.5 mg/kg dry soil; for Methane-production amount (mg/L) 21 days after treatment: 21 days static incubation at 30° C., untreated plot 69.3; for Methane-production amount (mg/L) 28 days after treatment: 28 days static incubation at 30° C., untreated plot 119.2", "procedure": "In a glass vial (21.5 mL volume) for headspace analysis, 4.0 g of paddy field soil (provisional specific gravity 1.18 g/cm^3) was weighed, and 8 mL of distilled water was added. In this flooded soil, a plot to which 20 μL of acetone solution containing 100 ppm of Compound I-1 was added (0.5 mg/kg dry soil (equivalent to 590 g/ha)) is provided as Example 10, a plot to which 20 μL of an aqueous solution containing 100 ppm of BES (a comparative compound) and acetone was added (0.5 mg/kg dry soil) is provided as Comparative Example 3, and an untreated plot to which 20 μL of acetone was added is provided as Comparative Example 4. After 100 μL of a culture solution of paddy field soil microorganisms was added to these glass vials, the vials were tightly sealed using septum and aluminum caps, and allowed to stand at 30° C. for static incubation. After 21 and 28 days of incubation treatment, 0.5 mL of gas was collected from a headspace in a glass vial sample using a gas tight syringe and analyzed for methane production by gas chromatography (GC). The comparative compound, BES (CAS No.: 4263-52-9; 2-Bromoethanesulfonate), is an existing methane-production inhibitor and a product manufactured by Tokyo Chemical Industry Co., Ltd."}, "[2]": {"tested_on": "paddy field soil microorganisms", "assay": "Test Example 1: methane-production inhibition test by Compound I-1 in flooded paddy field soil (headspace GC)", "assay_type": "cell-based", "conditions": "for Methane-production amount (mg/L) 21 days after treatment: 21 days static incubation at 30° C., untreated plot 34.0; for Methane-production amount (mg/L) 28 days after treatment: 28 days static incubation at 30° C., untreated plot 38.9", "procedure": "In a glass vial (21.5 mL volume) for headspace analysis, 4.0 g of paddy field soil (provisional specific gravity 1.18 g/cm^3) was weighed, and 8 mL of distilled water was added. In this flooded soil, a plot to which 40 μL of 10 ppm Compound I-1-containing acetone solution was added (0.1 mg/kg dry soil (equivalent to 118 g/ha)) was provided as Example 1, and a plot to which 20 μL of 100 ppm Compound I-1-containing acetone solution was added (0.5 mg/kg dry soil (equivalent to 590 g/ha)) and a plot to which 40 μL of 100 ppm Compound I-1-containing acetone solution was added (1 mg/kg dry soil (equivalent to 1180 g/ha)) were provided as Examples 2 and 3. As Comparative Example 1, an untreated plot to which 40 μL of acetone was added was provided. After 100 μL of a culture solution of paddy field soil microorganisms was added to these glass vials, the vials were tightly sealed using septum and aluminum caps, and allowed to stand at 30° C. for static incubation. After 21 and 28 days of incubation treatment, 0.5 mL of gas was collected from a headspace in a glass vial sample using a gas tight syringe and analyzed for methane production by gas chromatography (GC). The amount treatment (g) per 1 ha was converted according to the OECD Guideline Test No. 307 issued in 2002, based on the provisional specific gravity of the paddy field soil used."}, "[3]": {"tested_on": "paddy field soil microorganisms", "assay": "Test Example 2: methane-production inhibition test by various methane-production inhibitors in flooded paddy field soil (headspace GC)", "assay_type": "cell-based", "conditions": "for Methane-production amount compared to untreated plot: 0.5 mg/kg dry soil treatment; for Methane-production amount (mg/L) 21 days after treatment / Methane-production amount (mg/L) 28 days after treatment: 0.5 mg/kg dry soil; for Methane-production amount (mg/L) 21 days after treatment: 21 days static incubation at 30° C., untreated plot 19.6; for Methane-production amount (mg/L) 28 days after treatment: 28 days static incubation at 30° C., untreated plot 44.3", "procedure": "In a glass vial (21.5 mL volume) for headspace analysis, 4.0 g of paddy field soil (provisional specific gravity 1.18 g/cm^3) was weighed, and 8 mL of distilled water was added. In this flooded soil, plots to which 40 μL of acetone solution containing 50 ppm of the compounds listed in Table 2 below were added (0.5 mg/kg dry soil (equivalent to 590 g/ha)), respectively, were provided as Examples 4 to 9. As Comparative Example 2, an untreated plot to which 40 μL of acetone was added was provided. After 100 μL of a culture solution of paddy field soil microorganisms was added to these glass vials, the vials were tightly sealed using septum and aluminum caps, and allowed to stand at 30° C. for static incubation. After 21 and 28 days of incubation treatment, 0.5 mL of gas was collected from a headspace in a glass vial sample using a gas tight syringe and analyzed for methane production by gas chromatography (GC)."}, "[4]": {"tested_on": "methane-producing bacteria", "conditions": "80 mg/kg; paddy fields during rice cultivation; cited from earlier work"}},
  "data": [
    {"compound": "O=[N+]([O-])OCCCO", "note": "[Compound 3-NOP, 3-nitrooxypropanol]", "values": [
      {"measurement": "Reduction of methane emissions from dairy cattle", "setting": "dairy cattle", "value": 30, "unit": "%"}
    ]},
    {"compound": "O=C(Oc1ccc(OS(=O)(=O)CCl)cc1)c1ccccc1", "note": "[Compound I-1]", "values": [
      {"measurement": "Methane reduction amount relative to the reduction amount due to the comparative compound", "setting": "[1]", "value": "significantly greater"},
      {"measurement": "Methane-production amount compared to untreated plot", "setting": "[1]", "value": "reduced"},
      {"measurement": "Methane-production amount (mg/L) 21 days after treatment", "setting": "[1]", "value": 13.4, "unit": "mg/L"},
      {"measurement": "Methane-production amount (mg/L) 28 days after treatment", "setting": "[1]", "value": 34.2, "unit": "mg/L"},
      {"measurement": "Methane-production amount compared to untreated plot", "setting": "[2]; 0.1 mg/kg dry soil (Example 1)", "value": "reduced"},
      {"measurement": "Methane-production amount (mg/L) 21 days after treatment", "setting": "[2]; 0.1 mg/kg dry soil", "value": 9.1, "unit": "mg/L"},
      {"measurement": "Methane-production amount (mg/L) 28 days after treatment", "setting": "[2]; 0.1 mg/kg dry soil", "value": 21.3, "unit": "mg/L"},
      {"measurement": "Methane-production reduction effect compared to untreated plot", "setting": "[2]; 0.5 mg/kg dry soil and above (Examples 2 and 3)", "value": "higher reduction effect"},
      {"measurement": "Methane-production amount (mg/L) 21 days after treatment", "setting": "[2]; 0.5 mg/kg dry soil", "value": 2.8, "unit": "mg/L"},
      {"measurement": "Methane-production amount (mg/L) 28 days after treatment", "setting": "[2]; 0.5 mg/kg dry soil", "value": 3.7, "unit": "mg/L"},
      {"measurement": "Methane-production amount (mg/L) 21 days after treatment", "setting": "[2]; 1 mg/kg dry soil", "value": 2.5, "unit": "mg/L"},
      {"measurement": "Methane-production amount (mg/L) 28 days after treatment", "setting": "[2]; 1 mg/kg dry soil", "value": 3.1, "unit": "mg/L"},
      {"measurement": "Methane-production amount compared to untreated plot", "setting": "[3]", "value": "particularly high reduction effect"},
      {"measurement": "Methane-production amount (mg/L) 21 days after treatment", "setting": "[3]", "value": 2.5, "unit": "mg/L"},
      {"measurement": "Methane-production amount (mg/L) 28 days after treatment", "setting": "[3]", "value": 3.8, "unit": "mg/L"}
    ]},
    {"compound": "CS(=O)(=O)Oc1ccc(O)cc1", "note": "[Compound I-6]", "values": [
      {"measurement": "Methane-production amount (mg/L) 21 days after treatment", "setting": "[3]", "value": 16.7, "unit": "mg/L"},
      {"measurement": "Methane-production amount (mg/L) 28 days after treatment", "setting": "[3]", "value": 28.3, "unit": "mg/L"}
    ]},
    {"compound": "O=S(=O)(CO)c1ccc(Br)cc1", "note": "[Compound I-5]", "values": [
      {"measurement": "Methane-production amount (mg/L) 21 days after treatment", "setting": "[3]", "value": 15.7, "unit": "mg/L"},
      {"measurement": "Methane-production amount (mg/L) 28 days after treatment", "setting": "[3]", "value": 24.3, "unit": "mg/L"}
    ]},
    {"compound": "O=S(=O)(CCl)c1ccc(Br)cc1", "note": "[Compound I-3]", "values": [
      {"measurement": "Methane-production amount (mg/L) 21 days after treatment", "setting": "[3]", "value": 5.3, "unit": "mg/L"},
      {"measurement": "Methane-production amount (mg/L) 28 days after treatment", "setting": "[3]", "value": 14.7, "unit": "mg/L"}
    ]},
    {"compound": "O=S(=O)(CCl)Oc1ccc(O)cc1", "note": "[Compound I-2]", "values": [
      {"measurement": "Methane-production amount compared to untreated plot", "setting": "[3]", "value": "particularly high reduction effect"},
      {"measurement": "Methane-production amount (mg/L) 21 days after treatment", "setting": "[3]", "value": 2.5, "unit": "mg/L"},
      {"measurement": "Methane-production amount (mg/L) 28 days after treatment", "setting": "[3]", "value": 4.4, "unit": "mg/L"}
    ]},
    {"compound": "O=S(=O)([O-])CCBr.[Na+]", "note": "[BES, 2-Bromoethanesulfonate, reference compound]", "values": [
      {"measurement": "Reduction of methane emissions compared to a control area", "setting": "[4]", "value": 49, "unit": "%"},
      {"measurement": "Methane-production amount compared to untreated plot", "setting": "[1]", "value": "reduced"},
      {"measurement": "Methane-production amount (mg/L) 21 days after treatment", "setting": "[1]", "value": 32.9, "unit": "mg/L"},
      {"measurement": "Methane-production amount (mg/L) 28 days after treatment", "setting": "[1]", "value": 80.5, "unit": "mg/L"}
    ]},
    {"compound": "O=S(=O)(CCl)c1ccc(O)cc1", "note": "[Compound I-4]", "values": [
      {"measurement": "Methane-production amount (mg/L) 21 days after treatment", "setting": "[3]", "value": 5.4, "unit": "mg/L"},
      {"measurement": "Methane-production amount (mg/L) 28 days after treatment", "setting": "[3]", "value": 16.7, "unit": "mg/L"}
    ]}
  ]
}
